Laboratory results from patent US6204220A, “Substituted 2-oxo-3-alkynoic acids and methods of use thereof” (Rutgers, The State University of New Jersey, priority 1999, dated 2001).
“And” between values parts separate entries of the source, which are not always exact repeats. Identical values can stand only once.

Key:
resolved E1 = target: T1, resolved E1 (Escherichia coli, UniProt P0AFG8); assay: Non-oxidative formation of acetoin and acetolactate by resolved E1; format: biochemical, E. coli
T1 construct: made in house; host or cells: resolved from PDHc expressed in E. coli JRG1342
T1 sequence (P0AFG8 2-887): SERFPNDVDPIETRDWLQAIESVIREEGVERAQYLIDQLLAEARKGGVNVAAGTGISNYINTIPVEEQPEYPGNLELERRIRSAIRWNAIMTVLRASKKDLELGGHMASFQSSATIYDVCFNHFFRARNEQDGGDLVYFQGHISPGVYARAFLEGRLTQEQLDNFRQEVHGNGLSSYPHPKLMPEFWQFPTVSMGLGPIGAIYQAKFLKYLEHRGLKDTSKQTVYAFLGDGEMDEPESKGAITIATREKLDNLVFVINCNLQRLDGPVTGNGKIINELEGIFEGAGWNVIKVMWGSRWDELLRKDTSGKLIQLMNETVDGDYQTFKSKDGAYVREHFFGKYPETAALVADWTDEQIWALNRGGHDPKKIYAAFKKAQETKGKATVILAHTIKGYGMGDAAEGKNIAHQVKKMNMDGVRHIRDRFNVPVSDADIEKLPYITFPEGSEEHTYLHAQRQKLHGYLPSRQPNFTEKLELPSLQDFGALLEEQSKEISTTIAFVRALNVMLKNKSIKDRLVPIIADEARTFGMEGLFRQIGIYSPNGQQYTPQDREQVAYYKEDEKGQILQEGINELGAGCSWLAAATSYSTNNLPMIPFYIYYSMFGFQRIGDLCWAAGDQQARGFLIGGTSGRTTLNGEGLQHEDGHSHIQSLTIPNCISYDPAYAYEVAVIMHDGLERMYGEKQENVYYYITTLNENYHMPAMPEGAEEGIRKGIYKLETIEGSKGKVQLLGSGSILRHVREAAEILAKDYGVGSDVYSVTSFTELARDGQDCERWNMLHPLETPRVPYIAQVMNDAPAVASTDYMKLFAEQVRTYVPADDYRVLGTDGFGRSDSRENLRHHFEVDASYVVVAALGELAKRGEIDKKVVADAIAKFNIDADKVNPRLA
Procedure: Assay for the non-oxidative formation of acetoin and acetolactate by resolved E1. The reaction mixture contained in 0.8 mL of 50 mM KH2 PO4 buffer, pH 7.5: ThDP (1 mM); MgCl2 (2 mM); pyruvate (2 mM) and resolved E1 (0.04-0.1 mg). After 2 h at 37° C. the reaction was stopped by the addition of either 0.1 mL of 2.5 N NaOH (acetoin assay), or 0.02 mL of 6 N HCl (acetolactate assay), according to Kuwana et al. (1968). Tubes for acetolactate measurement were incubated for an additional 2 h at 37° C. to decarboxylate the acetolactate to acetoin. Acetoin was determined according to Westerfeld (1945). The activity is defined as nmoles of acetoin formed per min per mg protein.

E1 [1] = target: T2, E1 (Escherichia coli, UniProt P0AFG8); assay: Fluorescence measurements on binding to E1; parameters: species or system E. coli
T2 construct: made in house; host or cells: resolved from PDHc expressed in E. coli JRG1342
T2 sequence (P0AFG8 2-887): as above
Procedure: Fluorescence measurements on the binding of 2-oxo-3-butynoic acid to E1. The fluorescence spectrum of apo-E1 (enzyme having no activity in the absence of ThDP) was measured using the SLM8100 spectrofluorimeter at 25° C. The excitation wavelength was 295 nm and the emission spectrum, presumably due to tryptophan, was recorded in the 300-450 nm range in a 1 mL or 3 mL quartz cuvette. The concentration of apo-E1 was 0.05-0.175 mg/mL in 20 mM KH2 PO4 buffer, pH 7.5. The excitation and emission monochromator slit widths were 4 nm. The V.3.0 software and KaleidaGraph computer program were used for data processing. The emission maximum for tryptophan (λ=335 nm) was determined by fitting the points from the peak using the KaleidaGraph computer program.

E1 [2] = target: T2, E1; assay: Quantification of sulfhydryl groups in E1 (DTNB titration); parameters: species or system E. coli
Procedure: Quantification of the fraction of sulfhydryl groups in E1 modified by 2-oxo-3-butynoic acid. The concentration of titratable sulfhydryl groups was determined by treating samples (1 mL) containing E1 (3.02×10^-6 M) in 0.05 M KH2 PO4 buffer, pH 8.0 and 8 M urea, with small aliquots of 5,5'-dithiobis-(2-nitrobenzoic acid) from a 1 mM stock solution, and comparing the absorbencies at 412 nm with those obtained with freshly prepared cysteine solutions in the range 10×10^-6 -50×10^-6 M. Protein concentrations were determined by the Bio-Rad method with bovine serum albumin as standard.

E2-E3 subcomplex = target: T3, E2-E3 subcomplex (Escherichia coli, UniProt P06959+P0A9P0); assay: Preincubation of E2-E3 subcomplex with inhibitor, reconstitution with unmodified E1; format: biochemical, E. coli; details: up to 20 min preincubation, unmodified E1 added
T3 construct: made in house; host or cells: resolved from PDHc expressed in E. coli JRG1342
T3 sequence (P0A9P0 2-474): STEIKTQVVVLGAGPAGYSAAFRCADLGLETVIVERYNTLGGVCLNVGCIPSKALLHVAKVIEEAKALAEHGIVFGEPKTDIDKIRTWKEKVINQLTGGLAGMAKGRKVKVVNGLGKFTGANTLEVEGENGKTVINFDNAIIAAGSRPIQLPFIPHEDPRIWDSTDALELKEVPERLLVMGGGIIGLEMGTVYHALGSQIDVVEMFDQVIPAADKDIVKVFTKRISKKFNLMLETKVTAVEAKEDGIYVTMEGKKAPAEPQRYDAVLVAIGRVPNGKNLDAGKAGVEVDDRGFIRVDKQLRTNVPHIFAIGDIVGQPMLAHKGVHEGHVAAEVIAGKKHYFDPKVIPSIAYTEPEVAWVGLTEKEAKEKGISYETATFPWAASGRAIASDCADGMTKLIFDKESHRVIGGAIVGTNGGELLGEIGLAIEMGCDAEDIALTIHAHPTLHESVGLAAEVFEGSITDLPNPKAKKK
T3 sequence (P06959 whole entry): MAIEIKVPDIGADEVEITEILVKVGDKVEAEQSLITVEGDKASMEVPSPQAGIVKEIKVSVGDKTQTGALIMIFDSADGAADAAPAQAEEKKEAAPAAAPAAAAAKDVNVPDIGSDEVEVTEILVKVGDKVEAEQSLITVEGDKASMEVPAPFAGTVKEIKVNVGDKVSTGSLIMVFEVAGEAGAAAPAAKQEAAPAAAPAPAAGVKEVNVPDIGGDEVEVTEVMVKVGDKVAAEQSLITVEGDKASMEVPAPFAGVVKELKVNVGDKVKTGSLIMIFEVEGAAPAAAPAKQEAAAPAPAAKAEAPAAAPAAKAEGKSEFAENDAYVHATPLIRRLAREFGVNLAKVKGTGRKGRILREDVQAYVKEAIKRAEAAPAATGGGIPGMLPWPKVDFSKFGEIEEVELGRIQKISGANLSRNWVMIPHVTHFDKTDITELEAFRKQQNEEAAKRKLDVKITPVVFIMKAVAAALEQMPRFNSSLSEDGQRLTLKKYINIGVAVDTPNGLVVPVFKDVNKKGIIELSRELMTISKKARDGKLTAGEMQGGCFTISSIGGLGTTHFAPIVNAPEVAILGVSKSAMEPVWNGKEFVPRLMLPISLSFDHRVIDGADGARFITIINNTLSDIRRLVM
Procedure: Activity and related measurements on PDHc. The overall enzymatic reaction of the PDH complex was assayed using a Varian DMS 300 spectrophotometer or the Cobas Bio (Roche Diagnostics, Somerville, N.J.) automated centrifugal analyzer, monitoring the pyruvate-dependent reduction of NAD^+ at 340 nm. The reaction medium contained in 1 mL (DMS 300) or 0.25 mL (Cobas-Bio) test volume: 0.1 M Tris-HCl, pH 8.0; 1 mM MgCl2; 2 mM sodium pyruvate; 2.5 mM NAD^+; 0.052-0.2 mM coenzyme A; 0.2 mM ThDP; and 2.6 mM DTT at 27° C. The reaction was initiated either by adding enzyme to a mixture of all other components, or by adding CoA.
When the E2-E3 subcomplex was preincubated for different times (up to 20 min) with 2-oxo-3-butynoic acid, followed by dilution into a reaction mixture containing all components of the PDHc assay including unmodified E1 component, 100% of the activity could be reconstituted. In contrast, when resolved E1 was treated with inhibitors for different time periods before reconstitution with unmodified E2-E3 complex, a time-dependent decrease in the overall activity was observed (see FIG. 1B for resolved E1 reacted with 2-oxo-3-butynoic acid).

[3] = target: T4, C259N variant of 1-lip PDHc (Escherichia coli, UniProt P0AFG8, C260N); assay: Inactivation of C259N variant of 1-lip PDHc; format: biochemical, E. coli; details: butynoic acid at 1 mM
T4 construct: made in house; host or cells: E. coli JRG1342 (PDHc null), Ptac plasmid pGS596
T4 sequence (P0AFG8 2-887 C260N): as the sequence (P0AFG8 2-887) above, with C259N counted along it
Procedure: (§1) FIG. 6. Inactivation of 1-lip PDHc and its C259N and C259S variants by 2-oxo-3-butynoic acid. 1-lip PDHc (0.162 mg/mL) or the C259N and C259S variants of 1-lip PDHc (0.162 mg/mL) in 20 mM KH2 PO4 buffer, pH 7.5, containing 1 mM ThDP and 5 mM MgCl2 were incubated in the absence (curve 1: 1-lip PDHc and C259N variant) or in the presence of 1 mM of 2-oxo-3-butynoic acid (curve 2: the C259N variant; curve 3: 1-lip PDHc and the C259S variant) in a total volume 0.5 mL in the dark. At different times, aliquots of 50 μL were withdrawn and the overall activity was measured as described in FIG. 1A.
(§2) Bacterial strains and plasmids for PDHc. Derivatives of the PDHc null strain, E. coli JRG1342 contained Ptac expression plasmids encoding PDHc with E2 chains bearing three lipoyl domains (3-lip PDHc; pGS523, the wild type parental complex), or a single lipoyl domain in each E2 subunit (1-lip PDHc; pGS501), and variant 1-lip PDH complexes with mutations in the E1 gene leading to C259S (pGS457) and C259N (pGS596) substitutions (Machado et al., 1992; Machado, 1993).
(§3) Inactivation of 1-lip and 3-lip PDH complexes and resolved E1 component by 2-oxo-3-alkynoic acids. […]

[4] = target: T5, C259S variant of 1-lip PDHc (Escherichia coli, UniProt P0AFG8, C260S); assay: Inactivation of C259S variant of 1-lip PDHc; format: biochemical, E. coli; details: butynoic acid at 1 mM
T5 construct: made in house; host or cells: E. coli JRG1342 (PDHc null), Ptac plasmid pGS457
T5 sequence (P0AFG8 2-887 C260S): as the sequence (P0AFG8 2-887) above, with C259S counted along it
Procedure: as §1, §2, §3

[5] = E1 treated with 3.7 mM inhibitor, At = 11.5%
[6] = E1 with 11.5% overall activity remaining

SMILES: C#CC(=O)C(=O)O [2-oxo-3-butynoic acid, 2-Oxo-3-butynoic acid]
- Acetoin production (resolved E1; [5]): 1.52 ± 0.08 nmol/min/mg protein
- Acetolactate production (resolved E1; [5]): 0.51 ± 0.083 nmol/min/mg protein
- Acetoin production relative to uninhibited E1 (resolved E1; [6]): 30%
- Acetolactate production relative to uninhibited E1 (resolved E1; [6]): 36%
- decrease of fluorescence intensity (E1 [1]; 0.033 mM inhibitor): about 35%
- decrease of fluorescence intensity (E1 [1]; 0.1 mM inhibitor): 66%
- decrease of fluorescence intensity of E1 at 335 nm (E1 [1]; 0.11 mM, E1 0.173 mg/ml, ThDP 0.2 mM, MgCl2 1 mM): about 66%
- first-order rate constant of fluorescence intensity decrease, slow phase (E1 [1]; absence of added ThDP, 0.11 mM): 0.042 min⁻¹
- SH-groups remaining per monomer (E1 [2]; E1 reacted to residual activity of 10%, G-25, DTNB titration, 8 M urea): 3.83±0.18 SH-groups per monomer
- SH-groups modified per monomer / subunit (E1 [2]; difference to untreated E1): 1.3 SH-groups per monomer and 1.30±0.35 SH-groups per monomer
- activity reconstituted after preincubation of E2-E3 subcomplex with inhibitor (E2-E3 subcomplex): 100%
- inactivation of C259N variant [3]: inactivated
- inactivation of C259S variant [4]: inactivated
